Reference: patent US9828339B2, “Biphenyl derivatives and methods for preparing same” (DONG-A ST CO., LTD, priority 2013, dated 2017)

Tests used:
[1] = target: T1, human muscarinic M3 receptor (Homo sapiens (Human), UniProt P20309); experiment: Binding assay on human muscarinic M3 receptor ([3H]-methyl scopolamine displacement); details: membranes overexpressing human M3 receptor, Ki from IC50 by Cheng-Prusoff, read-out: Binding Affinity to M3 Receptor, Ki
Method in brief: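 Displacement of [3H]-methyl scopolamine from membranes overexpressing human M3, in Tris-HCl, 25 °C, 120 min; filter-bound radioactivity counted. Nonspecific binding with 5 μM atropine; Ki from IC50 via Cheng-Prusoff.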

[2] = tested on: rhythmic bladder contractions; experiment: Rhythmic bladder contractions in rats (in vivo); set-up: species or system rat; details: 0.3 mpk, intravenous, female Sprague-Dawley rats; amplitude reduction of bladder contractions
Method in brief: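 Halothane-anaesthetised female Sprague-Dawley rats had the bladder catheterised via the urethra, emptied, then slowly filled with 37 °C saline until stable rhythmic contractions, with pressure recorded by transducer. Compounds were given intravenously via the tail vein. Inhibition was measured as reduction in contraction amplitude.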

Sprague-Dawley (SD) rats = experiment: Acute toxicity test for oral administration on rats; format: in vivo, rat; details: observed for 4 days
Method: [Experimental Example 4] Acute Toxicity Test for Oral Administration on Rats
In order to confirm acute toxicity of the compounds of the present invention, following experiment was conducted. A low-dose group, a medi-dose group and a high-dose group, wherein the compounds of Examples were administered 100 mg/kg, 300 mg/kg and 1000 mg/kg respectively, were prepared. Methyl cellulose solution (0.5%) was prepared and orally administered to 3 rats of each group (i.e. both sexes of 6-week old Sprague-Dawley (SD) rats; male rats in 142-143 g; female rats in 126.3-127.3 g) in a volume of 10 mL/kg. Mortality, clinical signs and weight and the like were measured for 4 days, and discovered approximate lethal dose (ALD) therefrom were explained in Table 30 below.

[3] = target: T1, human muscarinic M3 receptor; experiment: Antagonism assay on human muscarinic M3 receptor (carbachol-induced intracellular calcium, FLIPR Calcium 5, transfected Cos-7 cells); format: cell-based; details: functional inhibitory constant; carbachol-induced intracellular calcium in Cos-7 cells transfected with human M3 receptor
Method in brief: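 Cos-7 cells transfected with human M3 receptor plasmid, pre-treated 3 min with compound, then carbachol-stimulated; intracellular calcium read by FLIPR Calcium 5.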

T1 sequence (P20309 whole entry): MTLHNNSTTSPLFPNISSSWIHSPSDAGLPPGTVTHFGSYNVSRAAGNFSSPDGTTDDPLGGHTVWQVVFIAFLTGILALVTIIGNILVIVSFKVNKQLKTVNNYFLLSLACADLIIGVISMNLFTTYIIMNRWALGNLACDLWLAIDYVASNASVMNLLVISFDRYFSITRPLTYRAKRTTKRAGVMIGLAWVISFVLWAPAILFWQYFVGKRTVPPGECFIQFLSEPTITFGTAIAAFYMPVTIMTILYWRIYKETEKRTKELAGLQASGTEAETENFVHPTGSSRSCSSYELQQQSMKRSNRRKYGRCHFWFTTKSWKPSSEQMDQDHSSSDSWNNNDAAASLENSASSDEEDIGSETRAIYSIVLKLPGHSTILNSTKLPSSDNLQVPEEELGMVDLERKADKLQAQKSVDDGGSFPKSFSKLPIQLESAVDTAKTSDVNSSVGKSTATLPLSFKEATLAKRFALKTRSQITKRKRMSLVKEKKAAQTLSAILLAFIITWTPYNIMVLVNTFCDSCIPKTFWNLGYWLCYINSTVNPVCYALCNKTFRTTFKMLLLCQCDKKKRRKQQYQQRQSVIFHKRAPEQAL

| Structure (SMILES) | Ki [1] | Inhibition of Rhythmic bladder contraction in rats [2] | Approximate Lethal Dose (ALD) (Sprague-Dawley (SD) rats) | Ki [3] |
| --- | --- | --- | --- | --- |
| CN1CC[C@@H](COC(=O)Nc2ccccc2-c2ccccc2)C1 [Example 89, (R)-(1-methylpyrrolidin-3-yl)methyl [1,1′-biphenyl]-2-ylcarbamate] | 2.43 nM | 33.9 ± 3.5% | >1000 mg/kg | 0.16 nM |
| CN1CC[C@@H](COC(=O)Nc2ccccc2-c2cc(F)cc(F)c2)C1 [Example 91, (R)-(1-methylpyrrolidin-3-yl)methyl (3′,5′-difluoro-[1,1′-biphenyl]-2-yl)carbamate] | 4.5 nM | 25.2 ± 2.5% | >1000 mg/kg | 1.32 nM |
| CN1CC[C@@H](COC(=O)Nc2ccc(F)cc2-c2ccc(F)c(Cl)c2)C1 [Example 143, (R)-(1-methylpyrrolidin-3-yl)methyl(3′-chloro-4′,5-difluoro-[1,1′-biphenyl]-2-yl)carbamate] | 1.12 nM | 24.3 ± 5.5% | >1000 mg/kg | 0.68 nM |
| CN1CCCC1CCOC(=O)Nc1ccc(F)cc1-c1ccc(F)c(Cl)c1 (stereo not shown) [Example 53, 2-(1-methylpyrrolidin-2-yl)ethyl(3′-chloro-4′,5-difluoro-[1,1′-biphenyl]-2-yl)carbamate] | 1.34 nM | 28.0 ± 5.0% | >1000 mg/kg | 0.57 nM |
| Cc1cccc(-c2ccccc2NC(=O)OCCC2CCCN2C)c1 (stereo not shown) [Example 15, 2-(1-methylpyrrolidin-2-yl)ethyl(3′-methyl-[1,1′-biphenyl]-2-yl)carbamate] | 2.27 nM | 25.6 ± 2.2% | >1000 mg/kg | 4.1 nM |
| Cc1cccc(-c2ccccc2NC(=O)OC[C@@H]2CCN(C)C2)c1 [Example 100, (R)-(1-methylpyrrolidin-3-yl)methyl(3′-methyl-[1,1′-biphenyl]-2-yl)carbamate] | 2.43 nM | 26.0 ± 6.0% | >1000 mg/kg | 0.64 nM |
| CCN1CC[C@@H](COC(=O)Nc2ccccc2-c2ccc(F)c(Cl)c2)C1 [Example 150, (R)-(1-ethylpyrrolidin-3-yl)methyl (3′-chloro-4′-fluoro-[1,1′-biphenyl]-2-yl)carbamate] | 5.6 nM | 25.1 ± 2.5% | >1000 mg/kg | 1.34 nM |
| CN1CC[C@H](COC(=O)Nc2ccccc2-c2ccccc2)C1 [Example 90, (S)-(1-methylpyrrolidin-3-yl)methyl [1,1′-biphenyl]-2-ylcarbamate] | 1.97 nM | 27.4 ± 1.9% | >1000 mg/kg | 0.17 nM |
| Cc1cccc(-c2ccccc2NC(=O)OC[C@@H]2CCCN2C)c1 [Example 199, (S)-(1-methylpyrrolidin-2-yl)methyl(3′-methyl-[1,1′-biphenyl]-2-yl)carbamate] | 0.8 nM | 27.8 ± 4.5% | >1000 mg/kg | 0.26 nM |
| CN1CCCC1CCOC(=O)Nc1ccccc1-c1ccccc1F (stereo not shown) [Example 34, 2-(1-methylpyrrolidin-2-yl)ethyl(2′-fluoro-[1,1′-biphenyl]-2-yl)carbamate] | 19.6 nM | 20.1 ± 1.8% | – | 2.64 nM |
| CN1CC[C@@H](COC(=O)Nc2ccccc2-c2cc(Cl)cc(Cl)c2)C1 [Example 131, (R)-(1-methylpyrrolidin-3-yl)methyl(3′,5′-dichloro-[1,1′-biphenyl]-2-yl)carbamate] | 12 nM | 17.8 ± 2.5% | – | 1.86 nM |
| CN1CCCC1CCOC(=O)Nc1ccc(Cl)cc1-c1ccccc1 (stereo not shown) [Example 66, 2-(1-Methylpyrrolidin-2-yl)ethyl (5-chloro-[1,1′-biphenyl]-2-yl)carbamate] | 6.98 nM | 12.0 ± 1.4% | – | 3.06 nM |
| CN1CCCC1CCOC(=O)Nc1ccc(F)cc1-c1ccc(F)cc1 (stereo not shown) [Example 19, 2-(1-methylpyrrolidin-2-yl)ethyl(4′,5-difluoro-[1,1′-biphenyl]-2-yl)carbamate] | 4.17 nM | 12.8 ± 3.0% | – | 1.9 nM |
| CN1CC[C@@H](COC(=O)Nc2ccccc2-c2ccc(F)c(Cl)c2)C1 [Example 136, (R)-(1-methylpyrrolidin-3-yl)-methyl (3′-chloro-4′-fluoro-[1,1′-biphenyl]-2-yl)carbamate] | 1.59 nM | 33.2 ± 4.0% | >1000 mg/kg | 0.25 nM |
| Cc1cccc(-c2cc(F)ccc2NC(=O)OCCC2CCCN2C)c1 (stereo not shown) [Example 22, 2-(1-methylpyrrolidin-2-yl)ethyl(5-fluoro-3′-methyl-[1,1′-biphenyl]-2-yl)carbamate] | 3.79 nM | 16.7 ± 1.7% | – | 2.39 nM |
